Results published in patent US20240252488A1 (KOREA RESEARCH INSTITUTE OF CHEMICAL TECHNOLOGY, priority 2020, published 2024).

What was measured:
MLKL [1] = biological target: T1, MLKL (Homo sapiens, UniProt Q8NB16); assay: Measurement of binding affinity with MLKL receptor (competitive binding assay, Kd); design: made in house; host or cells: HEK 293 cell line (T7 phage in E. coli BL21-derived host is also described)
T1 sequence (Q8NB16 1-471): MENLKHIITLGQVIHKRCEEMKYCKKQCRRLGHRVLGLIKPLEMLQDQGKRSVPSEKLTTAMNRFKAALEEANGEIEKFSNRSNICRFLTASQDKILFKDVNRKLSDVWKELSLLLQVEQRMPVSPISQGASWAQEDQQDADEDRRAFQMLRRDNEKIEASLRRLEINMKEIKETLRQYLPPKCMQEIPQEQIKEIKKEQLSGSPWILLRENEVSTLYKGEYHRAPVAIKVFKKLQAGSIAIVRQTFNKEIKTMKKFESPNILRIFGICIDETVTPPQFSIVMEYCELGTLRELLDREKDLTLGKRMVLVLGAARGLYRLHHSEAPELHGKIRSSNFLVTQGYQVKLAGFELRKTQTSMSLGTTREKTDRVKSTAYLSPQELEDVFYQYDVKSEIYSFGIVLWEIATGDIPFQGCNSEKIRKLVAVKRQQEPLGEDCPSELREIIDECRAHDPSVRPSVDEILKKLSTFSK
How it was run: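 Competitive displacement of MLKL, expressed in HEK 293 cells and DNA-tagged for qPCR, from immobilized ligand on biotin-blocked beads. Compounds were added from 111× DMSO stocks (final DMSO 0.9%). Kinase left in the eluates was quantified by qPCR to give Kd.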

MLKL [2] = biological target: T1, MLKL; assay: MLKL degradation assay in HepG2 cell line (western blot); assay type: cell-based; design: endogenous in cells; host or cells: HepG2 or HaCaT; conditions: cell line not given; for Degradation assay (Degradation %) 1 μM: compound 1 μM; for Degradation assay (Degradation %) 10 μM: compound 10 μM
How it was run: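 Cells seeded, next day medium swapped for compound-containing medium (final 1 or 10 μM) and incubated 20-24 h at 37 °C. Lysates in RIPA with protease/phosphatase inhibitors were protein-matched by BCA, run on SDS-PAGE and immunoblotted for MLKL.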

FADD−/− Jurkat cells = assay: Necroptosis inhibition assay, TNF-α-induced necroptosis (CellTiter-Glo 2.0); assay type: cell-based, human; conditions: TNF-α 15 ng/mL; for Necroptosis inhibition assay (Rescue %) 1 μM: compound 1 μM; for Necroptosis inhibition assay (Rescue %) 10 μM: compound 10 μM
How it was run: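 Luminescent ATP measurement gave viability, from which cytotoxicity and necroptosis inhibition rate were derived. Before that, cells (5.0×10^5 cells/mL) saw compound at 0.1, 1 or 10 μM final for 30 minutes at room temperature, then TNF-α (15 ng/mL final) for 20 to 24 hours at 37° C.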

Question: How did the Kd (MLKL [1]) turn out when `Nc1ncc(-c2cnn(C3CCN(CCCN4CCN(C(=O)COc5ccc6c(c5)C(=O)N(C5CCC(=O)NC5=O)C6=O)CC4)CC3)c2)nc1C(=O)OC(C(=O)Nc1ccc(F)cc1)c1ccccc1` (stereo not drawn) [TDH-244, 2-((4-fluorophenyl)amino)-2-oxo-1-phenylethyl 3-amino-6-(1-(1-(3-(4-(2-((2-(2,6-dioxopiperidin-3-yl)-1,3-dioxoisoindolin-5-yl)oxy)acetyl)piperazin-1-yl)propyl)piperidin-4-yl)-1H-pyrazol-4-yl)pyrazine-2-carboxylate] was run?
Answer: 1.3 nM

Question: What about the “Degradation assay (Degradation %) 1 μM” value (MLKL [2]) of the same molecule?
Answer: 75.95%

Question: What about the “Degradation assay (Degradation %) 10 μM” value (MLKL [2]) of the same molecule?
Answer: 66.16%

Question: What about the “Necroptosis inhibition assay (Rescue %) 1 μM” value (FADD−/− Jurkat cells) of the same molecule?
Answer: 92.11%

Question: And the “Necroptosis inhibition assay (Rescue %) 10 μM” value (FADD−/− Jurkat cells)?
Answer: 65.67%

Question: Which results are given for `Nc1ncc(-c2cnn(C3CCN(CCOCCOCCNC(=O)C4CN(c5cccc6c5C(=O)N(C5CCC(=O)NC5=O)C6=O)C4)CC3)c2)nc1C(=O)O[C@@H](C(=O)Nc1ccc(F)cc1)c1ccccc1` (stereo partly drawn) [TDH-115, (R)-2-((4-fluorophenyl)amino)-2-oxo-1-phenylethyl 3-amino-6-(1-(1-(2-(2-(2-(1-(2-(2,6-dioxopiperidin-3-yl)-1,3-dioxoisoindolin-4-yl)azetidine-3-carboxamido)ethoxy)ethoxy)ethyl)piperidin-4-yl)-1H-pyrazol-4-yl)pyrazine-2-carboxylate]?
Answer: Kd (MLKL [1]): 6.3 nM; Degradation assay (Degradation %) 1 μM (MLKL [2]): 10.31%; Degradation assay (Degradation %) 10 μM (MLKL [2]): 24.21%; Necroptosis inhibition assay (Rescue %) 1 μM (FADD−/− Jurkat cells): 12.42%; Necroptosis inhibition assay (Rescue %) 10 μM (FADD−/− Jurkat cells): 3.59%

Question: Which results are given for `Nc1ncc(-c2cnn(C3CCN(C(=O)COCCOCCNC(=O)COc4cccc5c4C(=O)N(C4CCC(=O)NC4=O)C5=O)CC3)c2)nc1C(=O)O[C@@H](C(=O)Nc1ccc(F)cc1)c1ccccc1` (stereo partly drawn) [TDH-188, (R)-2-((4-fluorophenyl)amino)-2-oxo-1-phenylethyl 3-amino-6-(1-(1-(2-(2-(2-(2-((2-(2,6-dioxopiperidin-3-yl)-1,3-dioxoisoindolin-4-yl)oxy)acetamido)ethoxy)ethoxy)acetyl)piperidin-4-yl)-1H-pyrazol-4-yl)pyrazine-2-carboxylate]?
Answer: Kd (MLKL [1]): 3.5 nM; Degradation assay (Degradation %) 1 μM (MLKL [2]): 7.04%; Degradation assay (Degradation %) 10 μM (MLKL [2]): 5.3%; Necroptosis inhibition assay (Rescue %) 1 μM (FADD−/− Jurkat cells): 45.68%; Necroptosis inhibition assay (Rescue %) 10 μM (FADD−/− Jurkat cells): 42.08%

Question: Which Kd (MLKL [1]) does the source give for `COc1ccc(C(=O)N2CCC(C(=O)N3CCC4(CC3)CC(N3CCC(CN5CCC(n6cc(-c7cnc(N)c(C(=O)O[C@@H](C(=O)Nc8ccc(F)cc8)c8ccccc8)n7)cn6)CC5)CC3)C4)CC2)cc1N1CCC(=O)NC1=O` [TDH-508, (R)-2-((4-fluorophenyl)amino)-2-oxo-1-phenylethyl 3-amino-6-(1-(1-((1-(7-(1-(3-(2,4-dioxotetrahydropyrimidin-1(2H)-yl)-4-methoxybenzoyl)piperidine-4-carbonyl)-7-azaspiro[3.5]nonan-2-yl)piperidin-4-yl)methyl)piperidin-4-yl)-1H-pyrazol-4-yl)pyrazine-2-carboxylate] here?
Answer: 0.4 nM

Question: And the “Degradation assay (Degradation %) 1 μM” value (MLKL [2])?
Answer: 87.16%

Question: What about the “Degradation assay (Degradation %) 10 μM” value (MLKL [2]) of the same molecule?
Answer: 90.95%

Question: And the “Necroptosis inhibition assay (Rescue %) 1 μM” value (FADD−/− Jurkat cells; FADD−/− Jurkat cells)?
Answer: 48.15%

Question: What about the “Necroptosis inhibition assay (Rescue %) 10 μM” value (FADD−/− Jurkat cells; FADD−/− Jurkat cells) of the same molecule?
Answer: 39.79%

Question: Which Kd (MLKL [1]) does the source give for `Nc1ncc(-c2cnn(C3CCN(CCOCCNC(=O)COc4cccc5c4C(=O)N(C4CCC(=O)NC4=O)C5=O)CC3)c2)nc1C(=O)O[C@@H](C(=O)Nc1ccc(F)cc1)c1ccccc1` (stereo partly drawn) [TDH-134, (R)-2-((4-fluorophenyl)amino)-2-oxo-1-phenylethyl 3-amino-6-(1-(1-(2-(2-(2-((2-(2,6-dioxopiperidin-3-yl)-1,3-dioxoisoindolin-4-yl)oxy)acetamido)ethoxy)ethyl)piperidin-4-yl)-1H-pyrazol-4-yl)pyrazine-2-carboxylate] here?
Answer: 3 nM

Question: And the “Degradation assay (Degradation %) 1 μM” value (MLKL [2])?
Answer: 14.36%

Question: And the “Degradation assay (Degradation %) 10 μM” value (MLKL [2])?
Answer: 54.11%

Question: And the “Necroptosis inhibition assay (Rescue %) 1 μM” value (FADD−/− Jurkat cells)?
Answer: 50.04%

Question: And the “Necroptosis inhibition assay (Rescue %) 10 μM” value (FADD−/− Jurkat cells)?
Answer: 86.09%

Question: `Nc1ncc(-c2cnn(C3CCN(CC4CCN(C(=O)COc5ccc6c(c5)C(=O)N(C5CCC(=O)NC5=O)C6=O)CC4)CC3)c2)nc1C(=O)O[C@@H](C(=O)Nc1ccc(F)cc1)c1ccccc1` (stereo partly drawn) [TDH-171, (R)-2-((4-fluorophenyl)amino)-2-oxo-1-phenylethyl 3-amino-6-(1-(1-((1-(2-((2-(2,6-dioxopiperidin-3-yl)-1,3-dioxoisoindolin-5-yl)oxy)acetyl)piperidin-4-yl)methyl)piperidin-4-yl)-1H-pyrazol-4-yl)pyrazine-2-carboxylate] was tested. Which Kd (MLKL [1]) did it give?
Answer: 2.3 nM

Question: What about the “Degradation assay (Degradation %) 1 μM” value (MLKL [2]) of the same molecule?
Answer: 64.64%

Question: And the “Degradation assay (Degradation %) 10 μM” value (MLKL [2])?
Answer: 64.5%

Question: What about the “Necroptosis inhibition assay (Rescue %) 1 μM” value (FADD−/− Jurkat cells) of the same molecule?
Answer: 93.81%

Question: And the “Necroptosis inhibition assay (Rescue %) 10 μM” value (FADD−/− Jurkat cells)?
Answer: 65.91%

Question: Which results are given for `Nc1ncc(-c2cnn(C3CCN(CCC4CCN(C(=O)CNc5ccc6c(c5)C(=O)N(C5CCC(=O)NC5=O)C6=O)CC4)CC3)c2)nc1C(=O)O[C@@H](C(=O)Nc1ccc(F)cc1)c1ccccc1` (stereo partly drawn) [TDH-199, (R)-2-((4-fluorophenyl)amino)-2-oxo-1-phenylethyl 3-amino-6-(1-(1-(2-(1-((2-(2,6-dioxopiperidin-3-yl)-1,3-dioxoisoindolin-5-yl)glycyl)piperidin-4-yl)ethyl)piperidin-4-yl)-1H-pyrazol-4-yl)pyrazine-2-carboxylate]?
Answer: Kd (MLKL [1]): 1.7 nM; Degradation assay (Degradation %) 1 μM (MLKL [2]): 61.77%; Degradation assay (Degradation %) 10 μM (MLKL [2]): 38.35%; Necroptosis inhibition assay (Rescue %) 1 μM (FADD−/− Jurkat cells): 36.93%; Necroptosis inhibition assay (Rescue %) 10 μM (FADD−/− Jurkat cells): 18%

Question: Which results are given for `Nc1ncc(-c2cnn(C3CCN(CCCN4CCN(C(=O)CCc5cccc6c5C(=O)N(C5CCC(=O)NC5=O)C6=O)CC4)CC3)c2)nc1C(=O)O[C@@H](C(=O)Nc1ccc(F)cc1)c1ccccc1` (stereo partly drawn) [TDH-382, (R)-2-((4-fluorophenyl)amino)-2-oxo-1-phenylethyl 3-amino-6-(1-(1-(3-(4-(3-(2-(2,6-dioxopiperidin-3-yl)-1,3-dioxoisoindolin-4-yl)propanoyl)piperazin-1-yl)propyl)piperidin-4-yl)-1H-pyrazol-4-yl)pyrazine-2-carboxylate]?
Answer: Kd (MLKL [1]): 0.42 nM; Degradation assay (Degradation %) 1 μM (MLKL [2]): 81.82%; Degradation assay (Degradation %) 10 μM (MLKL [2]): 81.68%; Necroptosis inhibition assay (Rescue %) 1 μM (FADD−/− Jurkat cells): 59.24%; Necroptosis inhibition assay (Rescue %) 10 μM (FADD−/− Jurkat cells): 22.12%

Question: Which results are given for `Nc1ncc(-c2cnn(C3CCN(CCCN4CCN(C(=O)C5CN(C6=CC(=O)N(C7CCC(=O)NC7=O)C6=O)C5)CC4)CC3)c2)nc1C(=O)O[C@@H](C(=O)Nc1ccc(F)cc1)c1ccccc1` (stereo partly drawn) [TDH-532, (R)-2-((4-fluorophenyl)amino)-2-oxo-1-phenylethyl 3-amino-6-(1-(1-(3-(4-(1-(1-(2,6-dioxopiperidin-3-yl)-2,5-dioxo-2,5-dihydro-1H-pyrrol-3-yl)azetidine-3-carbonyl)piperazin-1-yl)propyl)piperidin-4-yl)-1H-pyrazol-4-yl)pyrazine-2-carboxylate]?
Answer: Kd (MLKL [1]): 1.4 nM; Degradation assay (Degradation %) 1 μM (MLKL [2]): 73.88%; Degradation assay (Degradation %) 10 μM (MLKL [2]): 38.71%; Necroptosis inhibition assay (Rescue %) 1 μM (FADD−/− Jurkat cells; FADD−/− Jurkat cells): 21.37%; Necroptosis inhibition assay (Rescue %) 10 μM (FADD−/− Jurkat cells; FADD−/− Jurkat cells): 24.82%
